According to PubChem BioAssay (NCI):
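Grown in 96-well plates, cells were treated for 48 hours with each compound at five concentrations. Insufficient inhibition: endpoint recorded as highest concentration tested. GI50: concentration for 50% inhibition of growth. At the TGI there is no net growth.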

Legend:
Test in all cases: growth of human tumour cells (NCI), 48 h
[1] = test system: SK-MEL-5 melanoma
[2] = test system: NCI-H460 lung
[3] = test system: NCI-H226 lung
[4] = test system: SF-268 CNS
[5] = test system: HOP-92 NSCLC
[6] = test system: OVCAR-8 ovarian
[7] = test system: A498 renal
[8] = test system: M14 melanoma
[9] = test system: HT29 colon
[10] = test system: RPMI-8226 leukemia
[11] = test system: HCT-116 colon
[12] = test system: IGROV1 ovarian
[13] = test system: EKVX NSCLC
[14] = test system: CCRF-CEM leukemia
[15] = test system: KM20L2 colon
[16] = test system: ACHN renal
[17] = test system: UO-31 renal
[18] = test system: KM12 colon
[19] = test system: SK-OV-3 ovarian
[20] = test system: MALME-3M melanoma
[21] = test system: SNB-75 CNS
[22] = test system: SF-539 CNS
[23] = test system: HL-60(TB) leukemia
[24] = test system: 786-0 renal
[25] = test system: DMS 273 small cell lung
[26] = test system: SF-295 CNS
[27] = test system: MOLT-4 leukemia
[28] = test system: NCI-H522 lung
[29] = test system: DMS 114 small cell lung
[30] = test system: DLD-1 colon
[31] = test system: NCI-H23 lung
[32] = test system: LXFL 529 NSCLC
[33] = test system: OVCAR-3 ovarian
[34] = test system: HOP-18 NSCLC
[35] = test system: SNB-19 CNS
[36] = test system: SK-MEL-2 melanoma
[37] = test system: SR leukemia
[38] = test system: SK-MEL-28 melanoma
[39] = test system: CAKI-1 renal
[40] = test system: SN12C renal
[41] = test system: XF 498 CNS
[42] = test system: M19-MEL melanoma
[43] = test system: TK-10 renal
[44] = test system: HCT-15 colon
[45] = test system: K-562 leukemia
[46] = test system: HCC-2998 colon
[47] = test system: A549 NSCLC
[48] = test system: OVCAR-4 ovarian
[49] = test system: COLO 205 colon
[50] = test system: SW-620 colon
[51] = test system: RXF 393 renal
[52] = test system: U251 CNS
[53] = test system: LOX IMVI melanoma
[54] = test system: HOP-62 NSCLC
[55] = test system: OVCAR-5 ovarian
[56] = test system: UACC-62 melanoma
[57] = test system: SNB-78 CNS
[58] = test system: UACC-257 melanoma

CN(C)N=Nc1ccccc1
TGI [1]: > 100 µM
TGI [2]: > 100 µM
TGI [3]: > 100 µM
TGI [4]: > 100 µM
TGI [5]: > 100 µM
TGI [6]: > 100 µM
TGI [7]: > 100 µM
TGI [8]: > 100 µM
TGI [9]: > 100 µM
TGI [10]: > 100 µM
TGI [11]: > 100 µM
TGI [12]: > 100 µM
TGI [13]: > 100 µM
TGI [14]: > 100 µM
TGI [15]: > 100 µM
TGI [16]: > 100 µM
TGI [17]: > 100 µM
TGI [18]: > 100 µM
TGI [19]: > 100 µM
TGI [20]: > 100 µM
TGI [21]: > 100 µM
TGI [22]: > 100 µM
TGI [23]: > 100 µM
TGI [24]: > 100 µM
TGI [25]: > 100 µM
TGI [26]: > 100 µM
TGI [27]: > 100 µM
TGI [28]: > 100 µM
TGI [29]: > 100 µM
TGI [30]: > 100 µM
TGI [31]: > 100 µM
TGI [32]: > 100 µM
TGI [33]: > 100 µM
TGI [34]: > 100 µM
TGI [35]: > 100 µM
TGI [36]: > 100 µM
TGI [37]: > 100 µM
TGI [38]: > 100 µM
TGI [39]: > 100 µM
TGI [40]: > 100 µM
TGI [41]: > 100 µM
TGI [42]: > 100 µM
TGI [43]: > 100 µM
TGI [44]: > 100 µM
TGI [45]: > 100 µM
TGI [46]: > 100 µM
TGI [47]: > 100 µM
TGI [48]: > 100 µM
TGI [49]: > 100 µM
TGI [50]: > 100 µM
TGI [51]: > 100 µM
TGI [52]: > 100 µM

Cc1cc(O)c(C(=O)O)c2c1C(=O)c1c(O)c(OCC(O)C(O)C(O)C(O)CO)c(O)c(O)c1C2=O (configuration not stated) (tested in a mixture with another compound)
TGI [1]: > 100 µM
TGI [3]: > 100 µM
TGI [4]: > 100 µM
TGI [5]: > 100 µM
TGI [6]: > 100 µM
TGI [7]: > 100 µM
TGI [8]: > 100 µM
TGI [53]: > 100 µM
TGI [9]: > 100 µM
TGI [10]: > 100 µM
TGI [12]: > 100 µM
TGI [13]: > 100 µM
TGI [14]: > 100 µM
TGI [54]: > 100 µM
TGI [15]: > 100 µM
TGI [17]: > 100 µM
TGI [55]: > 100 µM
TGI [18]: > 100 µM
TGI [19]: > 100 µM
TGI [20]: > 100 µM
TGI [21]: > 100 µM
TGI [22]: > 100 µM
TGI [24]: > 100 µM
TGI [26]: > 100 µM
TGI [27]: > 100 µM
TGI [28]: > 100 µM
TGI [29]: > 100 µM
TGI [30]: > 100 µM
TGI [31]: > 100 µM
TGI [32]: > 100 µM
TGI [33]: > 100 µM
TGI [34]: > 100 µM
TGI [35]: > 100 µM
TGI [36]: > 100 µM
TGI [38]: > 100 µM
TGI [56]: > 100 µM
TGI [39]: > 100 µM
TGI [40]: > 100 µM
TGI [57]: > 100 µM
TGI [41]: > 100 µM
TGI [42]: > 100 µM
TGI [43]: > 100 µM
TGI [44]: > 100 µM
TGI [45]: > 100 µM
TGI [46]: > 100 µM
TGI [47]: > 100 µM
TGI [48]: > 100 µM
TGI [49]: > 100 µM
TGI [58]: > 100 µM
TGI [50]: > 100 µM
TGI [51]: > 100 µM
TGI [52]: > 100 µM

O=C(CC1=Nc2nnc(CCCCCCCc3nnc4n3C(=O)C(CC(=O)c3ccccc3)=N4)n2C1=O)c1ccccc1
TGI [1]: > 100 µM
TGI [2]: > 100 µM
TGI [3]: > 100 µM
TGI [4]: > 100 µM
TGI [5]: > 100 µM
TGI [6]: > 100 µM
TGI [7]: > 100 µM
TGI [8]: > 100 µM
TGI [53]: > 100 µM
TGI [9]: > 100 µM
TGI [10]: > 100 µM
TGI [11]: > 100 µM
TGI [12]: > 100 µM
TGI [13]: > 100 µM
TGI [14]: > 100 µM
TGI [54]: > 100 µM
TGI [15]: > 100 µM
TGI [16]: > 100 µM
TGI [17]: > 100 µM
TGI [55]: > 100 µM
TGI [18]: > 100 µM
TGI [19]: > 100 µM
TGI [20]: > 100 µM
TGI [21]: > 100 µM
TGI [22]: > 100 µM
TGI [23]: > 100 µM
TGI [24]: > 100 µM
TGI [26]: > 100 µM
TGI [27]: > 100 µM
TGI [28]: > 100 µM
TGI [29]: > 100 µM
TGI [30]: > 100 µM
TGI [31]: > 100 µM
TGI [32]: > 100 µM
TGI [33]: > 100 µM
TGI [34]: > 100 µM
TGI [35]: > 100 µM
TGI [37]: > 100 µM
TGI [38]: > 100 µM
TGI [56]: > 100 µM
TGI [39]: > 100 µM
TGI [40]: > 100 µM
TGI [41]: > 100 µM
TGI [42]: > 100 µM
TGI [43]: > 100 µM
TGI [44]: > 100 µM
TGI [45]: > 100 µM
TGI [46]: > 100 µM
TGI [47]: > 100 µM
TGI [49]: > 100 µM
TGI [58]: > 100 µM
TGI [50]: > 100 µM
TGI [51]: > 100 µM
TGI [52]: > 100 µM

CC(=O)[CH-]C(C)=O.CC(=O)[CH-]C(C)=O.CC(=O)[CH-]C(C)=O.[In+3]
GI50 [1]: > 100 µM
TGI [1]: > 100 µM
GI50 [2]: > 100 µM
TGI [2]: > 100 µM
GI50 [3]: > 100 µM
TGI [3]: > 100 µM
GI50 [4]: > 100 µM
TGI [4]: > 100 µM
GI50 [5]: > 100 µM
TGI [5]: > 100 µM
GI50 [6]: > 100 µM
TGI [6]: > 100 µM
GI50 [7]: > 100 µM
TGI [7]: > 100 µM
GI50 [8]: > 100 µM
TGI [8]: > 100 µM
GI50 [53]: > 100 µM
TGI [53]: > 100 µM
GI50 [9]: > 100 µM
TGI [9]: > 100 µM
GI50 [10]: > 100 µM
TGI [10]: > 100 µM
GI50 [11]: > 100 µM
TGI [11]: > 100 µM
GI50 [12]: > 100 µM
TGI [12]: > 100 µM
GI50 [14]: > 100 µM
TGI [14]: > 100 µM
GI50 [15]: > 100 µM
TGI [15]: > 100 µM
GI50 [16]: > 100 µM
TGI [16]: > 100 µM
GI50 [17]: > 100 µM
TGI [17]: > 100 µM
GI50 [55]: > 100 µM
TGI [55]: > 100 µM
GI50 [18]: > 100 µM
TGI [18]: > 100 µM
GI50 [19]: > 100 µM
TGI [19]: > 100 µM
GI50 [20]: > 100 µM
TGI [20]: > 100 µM
GI50 [21]: > 100 µM
TGI [21]: > 100 µM
GI50 [22]: > 100 µM
TGI [22]: > 100 µM
GI50 [23]: > 100 µM
TGI [23]: > 100 µM
GI50 [24]: > 100 µM
TGI [24]: > 100 µM
GI50 [25]: > 100 µM
TGI [25]: > 100 µM
GI50 [26]: > 100 µM
TGI [26]: > 100 µM
GI50 [27]: > 100 µM
TGI [27]: > 100 µM
GI50 [28]: > 100 µM
TGI [28]: > 100 µM
GI50 [29]: > 100 µM
TGI [29]: > 100 µM
GI50 [30]: > 100 µM
TGI [30]: > 100 µM
GI50 [31]: > 100 µM
TGI [31]: > 100 µM
GI50 [32]: > 100 µM
TGI [32]: > 100 µM
GI50 [33]: > 100 µM
TGI [33]: > 100 µM
GI50 [34]: 52.4 µM
TGI [34]: > 100 µM
GI50 [35]: > 100 µM
TGI [35]: > 100 µM
GI50 [36]: > 100 µM
TGI [36]: > 100 µM
GI50 [37]: > 100 µM
TGI [37]: > 100 µM
GI50 [38]: > 100 µM
TGI [38]: > 100 µM
GI50 [56]: > 100 µM
TGI [56]: > 100 µM
GI50 [39]: > 100 µM
TGI [39]: > 100 µM
GI50 [40]: > 100 µM
TGI [40]: > 100 µM
GI50 [41]: > 100 µM
TGI [41]: > 100 µM
GI50 [43]: > 100 µM
TGI [43]: > 100 µM
GI50 [45]: > 100 µM
TGI [45]: > 100 µM
GI50 [47]: > 100 µM
TGI [47]: > 100 µM
GI50 [48]: > 100 µM
TGI [48]: > 100 µM
GI50 [49]: > 100 µM
TGI [49]: > 100 µM
GI50 [58]: > 100 µM
TGI [58]: > 100 µM
GI50 [50]: > 100 µM
TGI [50]: > 100 µM
GI50 [51]: > 100 µM
TGI [51]: > 100 µM
GI50 [52]: > 100 µM
TGI [52]: > 100 µM
